Test results: PubChem BioAssay AID449750 (Broad Institute, 2010)
Active and inactive are the calls of the source. No rule for the calls is given here.

Assay: non-covalent RecA intein splicing inhibitors, dose response, biochemical, cell-free, fluorescence, secondary screen (AID 449750)

SMILES	AC50
Clc1ncnc2scc(C3COc4ccccc4O3)c12 (stereo unspecified)	7.28 µM
CCN(CC)C(=O)c1ccc2c(c1[N+](=O)[O-])C(=O)c1ccccc1C2=O	> 38 µM (inactive)
CCCCNC(=O)c1c(N)n(Cc2ccc3c(c2)OCO3)c2nc3ccccc3nc12	7.9 µM
CCN(CC)C(=O)CSc1nnc2nnc3cc(Cl)ccc3n12	> 38 µM (inactive)
COc1ccc(-c2cc(=O)[nH][nH]2)cc1OC	4.35 µM
COc1ccc(-c2cc(=O)n(CCC#N)[nH]2)cc1	3.3 µM
CC(C)[C@H](NC(=O)OC(C)(C)C)c1nnc(S(=O)(=O)Cc2c(F)cccc2Cl)o1	> 38 µM (inactive)
CCCCCCn1c(N2CCC(C(N)=O)CC2)nc2c1c(=O)n(C)c(=O)n2C	> 38 µM (inactive)
CNCC(O)CN(c1ccccc1)c1ccccc1 (stereo unspecified)	10.5 µM
CCCCCCCCCCCCCCCC[N+](C)(C)CC	10.9 µM
COC(CN(C(=O)CCl)C(C(=O)NC1CCCCC1)c1ccc(Cl)cc1)OC (stereo unspecified)	7.61 µM
CCOc1ccc(N2C(=O)/C(=C\c3ccc(OC)c(O)c3)S(=O)(=O)C2c2cccc([N+](=O)[O-])c2)cc1 (stereo unspecified)	> 38 µM (inactive)
COC(=O)c1sc(-c2ccc(C(C)(C)C)cc2)cc1NC(=O)/C=C/C(=O)O	5.71 µM
O=C(O)/C=C\C(=O)Nc1ccc(Oc2ccc(Br)cc2)cc1	15.2 µM
CCN1C(=O)c2c(C)nc3ccccc3c2C1=O	> 38 µM (inactive)
CCN(CC)C(=O)c1ccc2c(c1)C1C(Cl)C(Sc3ccccc3[N+](=O)[O-])CC1C(C(=O)O)N2 (stereo unspecified)	12.5 µM
COc1cc(C(c2c(C)[nH][nH]c2=O)c2c(C)[nH][nH]c2=O)ccc1OS(=O)(=O)c1ccccc1	9.54 µM
Cc1c(Cl)cccc1NC(=S)/C(=C(\[O-])c1ccc(Cl)s1)[n+]1ccccc1	> 38 µM (inactive)
Cc1[nH][nH]c(=O)c1C(c1ccc(Br)cc1)c1c(C)[nH][nH]c1=O	11.1 µM
CN1CCc2nc(SCC(=O)Nc3ccc(F)cc3)c(C#N)cc2C1	> 38 µM (inactive)
CCCSc1cc(NCCOC(=O)CCC)c([N+](=O)[O-])c2nonc12	> 38 µM (inactive)

SMILES	AC50
CN1c2ccc(C=O)c3c(C=O)ccc(c23)N(C)C1(C)C	> 38 µM (inactive)
Clc1ccc(Sc2oc(/C=N/n3cnnc3)cc2Br)cc1	> 38 µM (inactive)
O=C(Cc1cc(=O)[nH][nH]1)N/N=C/c1cccc(Cl)c1Cl	20 µM
O=[N+]([O-])c1cc([N+](=O)[O-])c2c(=Nc3ccccc3)n(-c3ccccc3)n(O)c2c1	21.7 µM
COc1ccc(CC(=O)N/N=C(/C)CC(=O)N(C)c2ccccc2)cc1	> 38 µM (inactive)
CC(=O)N(C1=C(N)C(=O)c2ccccc2C1=O)c1ccccc1	10.6 µM
CC(C)Cn1c(C(C)C)nc([N+](=O)[O-])c1S(=O)(=O)c1ccc(F)cc1	> 38 µM (inactive)
CC(Nc1c[nH]c(=O)[nH]c1=O)c1ccccc1 (stereo unspecified)	> 38 µM (inactive)
O=C(CSCc1ccc([N+](=O)[O-])cc1)N/N=C/c1cccnc1	> 38 µM (inactive)
O=C(O)/C=C/C(=O)Nc1ccc(SC(F)(F)C(F)(F)C(F)(F)F)cc1	7.99 µM
CCn1c(Cl)c(C=O)s/c1=N\S(=O)(=O)c1ccccc1	2.44 µM
O=C(O)CC1OCC=C2CN3CCC45C6=CC(=O)C(=O)C([N+](=O)[O-])=C6NC4C1C2CC35 (stereo unspecified)	32.5 µM
CC(=O)NC1C(=O)N(CCN2CCOCC2)c2ccc(C)cc21 (stereo unspecified)	21.6 µM
O=C1/C(=C/c2cccc([N+](=O)[O-])c2)CCc2ccccc21	11.2 µM
CCc1nc(N2CCN(C(=O)CCl)CC2)c2c3c(sc2n1)CC(C)CC3 (stereo unspecified)	2 µM
CCCc1[nH]nc2c1C(c1ccc(OCCN3CCOCC3)c(OCC)c1)C(C#N)=C(N)O2 (stereo unspecified)	> 38 µM (inactive)
Oc1ccc(N=Cc2ccc(O)c(O)c2)cc1	17.6 µM
CC[C@@H](CO)NC(=O)[C@@H]1C=C2c3cccc4c3c(cn4C)C[C@H]2N(C)C1	> 38 µM (inactive)
Cc1ccc(C2CC(c3cccs3)=NN2C(=O)CSC2=NCCS2)cc1 (stereo unspecified)	9.96 µM
Cc1onc(-c2c(Cl)cccc2Cl)c1C(=O)N1C(C)CCCC1C (stereo unspecified)	> 38 µM (inactive)
